From publication PMC9599704, “Liposomal Entrapment or Chemical Modification of Relaxin2 for Prolongation of Its Stability and Biological Activity” (Biomolecules, 2022)

Assay: in vitro
Method: Samples were placed separately in hermetically sealed screw-tubes (to avoid evaporation) and then in an orbital incubator (Stuart S1500, UK) set at 50 rpm and 37 °C, for a period of up to 30 d. […] For quantification of free or liposomal peptides in the presence of 80% FBS, serum proteins precipitation was accomplished by mixing one volume of sample (100 μL) with three volumes (300 μL) of acidified isopropanol (with 0.1% TFA), followed by vortex agitation and centrifugation at 15000 rpm for 15 min. Next, the supernatant was transferred to a new eppendorf tube and 400 μL of HEPES (pH 5.0) were added, followed by vigorous vortex for 1 min, in order to retrieve the peptide. Finally, the samples were analyzed by HPLC, based on a calibration curve constructed at the exact same conditions as the samples to be analyzed.
For direct comparison of the stability of the different peptides, the results were normalized and expressed as the percentage of the corresponding initial peptide concentration measured at time point 0, for each peptide and each formulation (solution or liposome). Experiments were carried out in triplicate, and the results are expressed as the mean value ± standard deviation.

## CC[C@H](C)[C@@H]1NC(=O)[C@H](C)NC(=O)[C@H]([C@@H](C)CC)NC(=O)[C@H](CCC(N)=O)NC(=O)[C@H](C)NC(=O)[C@H](CCCNC(=N)N)NC(=O)[C@H](C(C)C)NC(=O)[C@H](CC(C)C)NC(=O)[C@H](CCC(=O)O)NC(=O)[C@H](CCCNC(=N)N)NC(=O)CNC(=O)[C@@H](NC(=O)[C@H](CC(C)C)NC(=O)[C@H](CCCCN)NC(=O)[C@@H](NC(=O)[C@@H](NC(=O)[C@H](CCC(=O)O)NC(=O)[C@H](CCC(=O)O)NC(=O)[C@H](CCSC)NC(=O)[C@H](Cc2c[nH]c3ccccc23)NC(=O)[C@H](CO)NC(=O)[C@@H](N)CC(=O)O)C(C)C)[C@@H](C)CC)CSSC[C@@H]2NC(=O)[C@@H](NC(=O)[C@H](CCCCN)NC(=O)[C@H](CC(N)=O)NC(=O)[C@H](C)NC(=O)[C@H](CC(C)C)NC(=O)[C@H](C)NC(=O)[C@H](CO)NC(=O)[C@H](Cc3ccc(O)cc3)NC(=O)[C@H](CC(C)C)NC(=O)[C@@H]3CCC(=O)N3)CSSC[C@H](NC(=O)CNC(=O)[C@H](C(C)C)NC(=O)[C@H](Cc3c[nH]cn3)NC2=O)C(=O)N[C@@H]([C@@H](C)O)C(=O)N[C@@H](CCCCN)C(=O)N[C@@H](CCCNC(=N)N)C(=O)N[C@@H](CO)C(=O)N[C@@H](CC(C)C)C(=O)N[C@@H](C)C(=O)N[C@@H](CCCNC(=N)N)C(=O)N[C@@H](Cc2ccccc2)C(=O)N[C@H](C(=O)O)CSSC[C@@H](C(=O)NCC(=O)N[C@@H](CC[S+](C)[O-])C(=O)N[C@@H](CO)C(=O)N[C@H](C(=O)N[C@@H](Cc2c[nH]c3ccccc23)C(=O)N[C@@H](CO)C(=O)O)[C@@H](C)O)NC1=O (some centres unmarked) [O-RLX2, Met (O)^25-human relaxin 2]
FBS 80% v/v, 37 °C, 10 d, 58 ± 5.0 μg/mL peptide, HPLC, % of initial concentration, triplicate
  peptide remaining after 10 d of incubation in FBS: all the free O-RLX2 peptide was degraded
Fetal bovine serum (FBS) 80% v/v
  half-life: 3.48 days
